Measurements reported in patent publication US20160297833A1, “THIENOPYRIMIDINES AS MKNK1 AND MKNK2 INHIBITORS” (BAYER PHARMA AKTIENGESELLSCHAFT, priority 2013, published 2016).
Where two headings read alike, the source gives them in different places.

Molecular target: T1, human full-length MKNK1 (Homo sapiens, UniProt Q9BUB5, T385D)
T1 construct: GST (N); purchased Carna Biosciences 02-145; host or cells: insect cells (baculovirus expression system)
Assay: MKNK1 kinase high ATP assay (TR-FRET)
Assay type: biochemical
Settings: for IC50: read-out: MKNK1 IC50
How it was run: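 Full-length human MKNK1 (T385D) preincubated 15 min at 22 °C with compound in HEPES pH 7.5/MgCl2/DTT buffer; reaction with 2 mM ATP (final) and 0.06 μM biotinylated peptide (final), 30 min at 22 °C.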

[1] = Table 1, MKNK1 kinase high ATP assay, 2 mM ATP

T1 sequence (Q9BUB5 1-424 isoform Q9BUB5-2 T344D): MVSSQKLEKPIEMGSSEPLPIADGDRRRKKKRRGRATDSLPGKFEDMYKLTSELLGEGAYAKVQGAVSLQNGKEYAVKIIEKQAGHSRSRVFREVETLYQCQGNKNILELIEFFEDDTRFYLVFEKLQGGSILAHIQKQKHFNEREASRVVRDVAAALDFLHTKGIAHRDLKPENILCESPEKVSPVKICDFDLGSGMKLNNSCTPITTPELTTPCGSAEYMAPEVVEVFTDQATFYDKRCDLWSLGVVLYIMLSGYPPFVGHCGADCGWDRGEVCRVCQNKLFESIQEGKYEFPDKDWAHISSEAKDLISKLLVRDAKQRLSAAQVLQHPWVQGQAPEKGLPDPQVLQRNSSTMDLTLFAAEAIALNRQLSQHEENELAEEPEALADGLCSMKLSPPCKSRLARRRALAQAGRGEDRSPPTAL

Row | Compound | IC50 [1] | further results
1 | CSc1cc2[nH]ncc2cc1Nc1ncnc2sc3c(c12)CC[C@H](C(=O)N1CCOCC1)C3 [Example 255, [(7S)-4-{[6-(Methylsulfanyl)-1H-indazol-5-yl]amino}-5,6,7,8-tetrahydro[1]benzothieno[2,3-d]pyrimidin-7-yl](morpholin-4-yl)methanone] | 2 nM | 
2 | C[C@H]1COCCN1C(=O)[C@H]1CCc2c(sc3ncnc(Nc4cc5cn[nH]c5cc4N(C)C)c23)C1 [Example 188, [(7S)-4-{[6-(Dimethylamino)-1H-indazol-5-yl]amino}-5,6,7,8-tetrahydro[1]benzothieno[2,3-d]pyrimidin-7-yl][(3S)-3-methylmorpholin-4-yl]methanone] | 0.3 nM | 
3 | COc1cc2[nH]ncc2cc1Nc1ncnc2sc3c(c12)CC[C@H](C(=O)N(CCN(C)C)Cc1ccncc1)C3 [Example 62, (7S)—N-[2-(Dimethylamino)ethyl]-4-[(6-methoxy-1H-indazol-5-yl)amino]-N-(pyridin-4-ylmethyl)-5,6,7,8-tetrahydro[1]benzothieno[2,3-d]pyrimidine-7-carboxamide] | 0.1 nM | 
4 | CN(C)C(=O)[C@H]1CCc2c(sc3ncnc(Nc4cc5cn[nH]c5cc4OCCNC(=O)C(C)(C)C)c23)C1 [Example 257, (7S)-4-[(6-{2-[(2,2-Dimethylpropanoyl)amino]ethoxy}-1H-indazol-5-yl)amino]-N, N-dimethyl-5,6,7,8-tetrahydro[1]benzothieno[2,3-d]pyrimidine-7-carboxamide] | 2.4 nM | 
5 | [(7S)-4-(1H-Indazol-5-ylamino)-5,6,7,8-tetrahydro[1]benzothieno[2,3-d]pyrimidin-7-yl](morpholin-4-yl)methanone [Example 9] |  | IC50 (Table 3, example numbers of WO2013/174744(A1), not of this patent, pure enantiomer from chiral HPLC, absolute configuration at amide 'R or S'): 7.2 nM; IC50 (Table 3, example numbers of WO2013/174744(A1), not of this patent, pure enantiomer from chiral HPLC, absolute configuration at amide 'S or R'): 1.8 nM; Activity Ratio MKNK1 (Table 3, example numbers of WO2013/174744(A1), ratio of the IC50 values of the two enantiomers): 3.9
6 | C[C@@H]1CN(C(=O)[C@H]2CCc3c(sc4ncnc(Nc5cc6cn[nH]c6cc5Br)c34)C2)C[C@@H](C)O1 [Example 233, {(7S)-4-[(6-Bromo-1H-indazol-5-yl)amino]-5,6,7,8-tetrahydro[1]benzothieno[2,3-d]pyrimidin-7-yl}[(2R,6R)-2,6-dimethylmorpholin-4-yl]methanone] | 2.1 nM | 
7 | COc1cc2[nH]ncc2cc1Nc1ncnc2sc3c(c12)CC[C@H](C(=O)N1CCOC[C@H]1C)C3 [Example 31, {(7S)-4-[(6-Methoxy-1H-indazol-5-yl)amino]-5,6,7,8-tetrahydro[1]benzothieno[2,3-d]pyrimidin-7-yl}[(3R)-3-methylmorpholin-4-yl]methanone] | 0.8 nM | 
8 | C[C@H]1COCCN1C(=O)[C@H]1CCc2c(sc3ncnc(Nc4cc5cn[nH]c5cc4OCCN4CCCCC4)c23)C1 [Example 119, [(3S)-3-Methylmorpholin-4-yl][(7S)-4-({6-[2-(piperidin-1-yl)ethoxy]-1H-indazol-5-yl}amino)-5,6,7,8-tetrahydro[1]benzothieno[2,3-d]pyrimidin-7-yl]methanone] | 757 nM | 
9 | CCCOc1cc2[nH]ncc2cc1Nc1ncnc2sc3c(c12)CC[C@H](C(=O)N1CC(O)C1)C3 [Example 159, (3-Hydroxyazetidin-1-yl){(7S)-4-[(6-propoxy-1H-indazol-5-yl)amino]-5,6,7,8-tetrahydro[1]benzothieno[2,3-d]pyrimidin-7-yl}methanone] | 1.9 nM | 
10 | O=C([C@H]1CCc2c(sc3ncnc(Nc4cc5cn[nH]c5cc4Cl)c23)C1)N1CCOCC1 [Example 231, {(7S)-4-[(6-Chloro-1H-indazol-5-yl)amino]-5,6,7,8-tetrahydro[1]benzothieno[2,3-d]pyrimidin-7-yl}(morpholin-4-yl)methanone] | 4 nM | 
11 | CN(C)C(=O)[C@H]1CCc2c(sc3ncnc(Nc4cc5cn[nH]c5cc4N(C)CCC(C)(C)O)c23)C1 [Example 242, (7S)-4-({6-[(3-Hydroxy-3-methylbutyl)(methyl)amino]-1H-indazol-5-yl}amino)-N,N-dimethyl-5,6,7,8-tetrahydro[1]benzothieno[2,3-d]pyrimidine-7-carboxamide] | 20.3 nM | 
12 | C[C@H]1COCCN1C(=O)[C@H]1CCc2c(sc3ncnc(Nc4cc5cn[nH]c5cc4OCCN)c23)C1 [Example 131, [(7S)-4-{[6-(2-Aminoethoxy)-1H-indazol-5-yl]amino}-5,6,7,8-tetrahydro[1]benzothieno[2,3-d]pyrimidin-7-yl][(3S)-3-methylmorpholin-4-yl]methanone] | 0.4 nM | 
13 | CN(C)C1CCN(C(=O)[C@H]2CCc3c(sc4ncnc(Nc5cc6cn[nH]c6cc5OCCN5CCCCC5)c34)C2)CC1 [Example 139, [4-(Dimethylamino)piperidin-1-yl][(7S)-4-({6-[2-(piperidin-1-yl)ethoxy]-1H-indazol-5-yl}amino)-5,6,7,8-tetrahydro[1]benzothieno[2,3-d]pyrimidin-7-yl]methanone] | 95 nM | 
14 | CN(C)C(=O)[C@H]1CCc2c(sc3ncnc(Nc4cc5cn[nH]c5cc4Br)c23)C1 [Example 181, (7S)-4-[(6-Bromo-1H-indazol-5-yl)amino]-N,N-dimethyl-5,6,7,8-tetrahydro[1]benzothieno[2,3-d]pyrimidine-7-carboxamide] | 3.6 nM | 
15 | CN(C)C1CCN(c2cc3[nH]ncc3cc2Nc2ncnc3sc4c(c23)CC[C@H](C(=O)N2C[C@@H]3C[C@H]2CO3)C4)CC1 [Example 153, [(7S)-4-({6-[4-(Dimethylamino)piperidin-1-yl]-1H-indazol-5-yl}amino)-5,6,7,8-tetrahydro[1]benzothieno[2,3-d]pyrimidin-7-yl][(1S,4S)-2-oxa-5-azabicyclo[2.2.1]hept-5-yl]methanone] | 17.5 nM | 
16 | CCN(CCN(C)C)C(=O)[C@H]1CCc2c(sc3ncnc(Nc4cc5cn[nH]c5cc4OC)c23)C1 [Example 53, (7S)—N-[2-(Dimethylamino)ethyl]-N-ethyl-4-[(6-methoxy-1H-indazol-5-yl)amino]-5,6,7,8-tetrahydro[1]benzothieno[2,3-d]pyrimidine-7-carboxamide] | 0.3 nM | 
17 | CN(C)C(=O)[C@H]1CCc2c(sc3ncnc(Nc4cc5cn[nH]c5cc4OCCNC(=O)CC4CCCC4)c23)C1 [Example 273, (7S)-4-[(6-{2-[(Cyclopentylacetyl)amino]ethoxy}-1H-indazol-5-yl)amino]-N,N-dimethyl-5,6,7,8-tetrahydro[1]benzothieno[2,3-d]pyrimidine-7-carboxamide] | 0.4 nM | 
18 | C[C@@H]1CN(C(=O)[C@H]2CCc3c(sc4ncnc(Nc5cc6cn[nH]c6cc5OC5CN(C(=O)OC(C)(C)C)C5)c34)C2)C[C@H](C)O1 [Example 266, tert-Butyl 3-[(5-{[(7S)-7-{[(2R,6S)-2,6-dimethylmorpholin-4-yl]carbonyl}-5,6,7,8-tetrahydro[1]benzothieno[2,3-d]pyrimidin-4-yl]amino}-1H-indazol-6-yl)oxy]azetidine-1-carboxylate] | 0.9 nM | 
19 | CC(C)Oc1cc2[nH]ncc2cc1Nc1ncnc2sc3c(c12)CC[C@H](C(=O)N1C[C@H]2C[C@@H]1CO2)C3 [Example 87, (1R,4R)-2-Oxa-5-azabicyclo[2.2.1]hept-5-yl[(7S)-4-{[6-(propan-2-yloxy)-1H-indazol-5-yl]amino}-5,6,7,8-tetrahydro[1]benzothieno[2,3-d]pyrimidin-7-yl]methanone] | 0.3 nM | 
20 | COc1cc2[nH]ncc2cc1Nc1ncnc2sc3c(c12)CC[C@H](C(=O)N1C[C@@H](C)O[C@@H](C)C1)C3 [Example 161, [(2R,6S)-2,6-dimethylmorpholin-4-yl]{(7S)-4-[(6-methoxy-1H-indazol-5-yl)amino]-5,6,7,8-tetrahydro[1]benzothieno[2,3-d]pyrimidin-7-yl}methanone] | 1.2 nM | 
